Series [1] has as its system Pseudomonas aeruginosa. In words: Antimicrobial screening by agar dilution. The settings on record: after 10, 20, 40 and 60 minutes at all dilutions 1:100, 1:200, 1:400, 1:800. Format: cell-based. As to the method: (§1) The antibacterial properties of the synthesized compound 6-(3-hydroxyphenyl)-2-methoxy-4-(3-methylphenyl)nicotinonitrile were studied by the method of agar dilution. Test solutions of each compound was prepared in concentration of 1% using dimethylformamide as a solvent then they are diluted in physiological solution to obtain the final experimental dilutions 1:100, 1:200, 1:400, 1:800. The effects of these substances are compared with furacillin in a controllable study. The testing microbes used were gram positive bacteria Staphylococcus aureus, gram negative bacteria Pseudomonas aeruginosa and Escherichia coli and Candida albicans fungus. The experiments used for this survey were meat-pentonlu agar (EPA) for cultivation of bacteria and Saburo environment for the fungus. Each experiment used 1 mL of test solution on each plate […]. Two drops of emulsified with microbes feel were added. All experimental samples were taken from the agar after 10, 20, 40, 60 minutes in the environment on the basis of Patrk planted. The bacteria were cultivated at a temperature of 37° C. for 1 day and the mushroom was kept in a thermostat for […] at a temperature of 28° C. Then results were checked.
Background: In agar dilution the substance is mixed into plates at graded concentrations.

The test system of series [2] is Staphylococcus aureus. The series can be described thus: Antimicrobial screening by agar dilution. The series is classed as cell-based. The settings on record: after 10, 20, 40 and 60 minutes at all dilutions 1:100, 1:200, 1:400, 1:800. The method, then:
as §1

In series [3] the test system is Candida albicans. The series can be described thus: Antimicrobial screening by agar dilution. The series is classed as cell-based. The settings on record: after 10, 20, 40 and 60 minutes at all dilutions 1:100, 1:200, 1:400, 1:800. The method, then: as §1
Series [4] concerns Escherichia coli. The series can be described thus: Antimicrobial screening by agar dilution. The series is classed as cell-based. The settings on record: after 10, 20, 40 and 60 minutes at all dilutions 1:100, 1:200, 1:400, 1:800. As to the method: as §1

Broadly, the melting point is the temperature, or range, at which the solid turns liquid.

`COc1nc(-c2cccc(O)c2)cc(-c2cccc(C)c2)c1C#N` [6-(3-hydroxyphenyl)-2-methoxy-4-(3-methylphenyl)nicotinonitrile] gave a melting point of 205 to 207 °C. Further, the “inhibition activity (in words)” value in series [1] is on record as “highest inhibition activity”. Besides, the “inhibition activity (in words)” value in series [2] is “highest inhibition activity”. In addition, the “inhibition activity (in words)” value in series [3] is reported as “highest inhibition activity”. Further, the “inhibition activity (in words)” value in series [4] is “highest inhibition activity”.

Source of the values: patent publication US11970451B1, “6-(3-hydroxyphenyl)-2-methoxy-4-(3-methylphenyl)nicotinonitrile as an antimicrobial compound” (KING FAISAL UNIVERSITY, priority 2023, dated 2024).
